Results as given in patent US8399466B2, “Composition for regenerative treatment of cartilage disease” (Mitsubishi Tanabe Pharma Corporation, priority 2001, dated 2013).

Key:
[1] = test system: articular chondrocytes; test: Increase of matrix production of articular chondrocytes (Alcian blue staining of proteoglycan); assay type: cell-based, rabbit; settings: for Proteoglycan Production (%): cultivation until day 5, vehicle = 100; for matrix production promoting activity: summary of Table 1
Protocol: Four NZW line rabbits (Kitayama Labes., Co Ltd.; male; 4-week-old) were sacrificed with bleeding under ether anesthesia and femur knee joints were collected aseptically. The collected knee joints were stored in phosphate buffer (pH 7.2) containing 0.2% glucose and only the cortical layer of knee joint was scrapped with a surgical knife into a 50 ml tube containing phosphate buffer (pH 7.2) containing 0.2% glucose. The collected knee joint cortical layer was cut into as small sections as possible on a dish with a razor and shaken at 37° C. for 15 minutes in phosphate buffer containing 0.2% glucose, supplied with 10× trypsin-ethylenediamine tetraacetic acid (EDTA)·4 Na salt (GIBCO; Cat. No. 15400-054) (50 ml, with 100 mg of trypsin and 40 mg of EDTA·4Na; pH 7.2). After shaking, the sample was centrifuged (1,400 rpm) to collect precipitates, and the precipitates were washed twice with 40 ml of phosphate buffer containing 0.2% glucose. The washed precipitates were combined with 40 ml of serum-free α-minimum essential medium (MEM: GIBCO; Cat: No. 12571-063) containing 60 mg of collagenase for cell diffusion (Wako Pure Chemical Industries, Ltd., 034-10533) and transferred to a 100 ml beaker containing a sterilized stirrer bar. Under stirring with the stirrer bar, the collagenase digestion was carried on for about 1 hour in a CO2 incubator at 37° C. Cartilage fragments were removed from the collagenase-treated cells using a […] Cell Strainer ([FALCON; Cat. No. 2340]). To the residual treated cells was added 10 ml of α-MEM medium containing 10% fetal calf serum (FCS), and centrifuged (1,400 rpm). The precipitates were washed with 10% FCS-αMEM medium twice, suspended in appropriate volume of the same medium and the resultant suspension was seeded into collagen type II (Wako Pure Chemical Industries, Ltd., 033-13901)-coated plates (48 well) at 20,000 cells/well. On the next day, the medium was replaced with 10% FCS-αMEM medium.
When cells reached to confluent after the medium exchange procedure above, the medium for test group was replaced with test compound-containing medium (including 0.1% dimethylsulfoxide as a vehicle). As a medium to which a test compound is added, 10% FCS-αMEM medium containing 0.2 mM ascorbic acid was used. The day on which test compound-containing medium was added for the first time was defined as “day 1”. The medium exchange with the same medium was again conducted at day 3 and the cultivation continued until day 5. As to the control group, the medium was exchanged at the same time using the same medium as the test group except that it is free of test compound (containing vehicle only), and the cultivation was carried out in the same manner. After completion of cultivation, the supernatant was removed from the culture medium. Cells were fixed by addition of 0.25 ml of neutral buffer containing 4% paraformaldehyde and incubation for 2 hours. Cells were washed three times with 1 ml of phosphate buffer (pH 7.2) and then stained for 4 hours with 0.1% Alcian blue 8GX (Sigma; A3157) dissolved in 0.1 M hydrochloric acid, which Alcian blue selectively stains cartilage matrix proteoglycan. After staining, the cells were washed 3 times with 1 ml of phosphate buffer (pH 7.2). Alcian blue which had stained cartilage matrix was dissolved with 0.25 ml of aqueous 6 M guanidine hydrochloride solution and a portion of the solution was used to determine the absorbance at 620 nm. The amounts of Alcian blue used for staining was calculated from the absorbance, which in turn was used for the estimation of the amount of matrix (proteoglycan).

[2] = test system: gonarthrosis induced by partial excision of medial meniscus/abscission of bilateral collateral ligaments; test: Regenerative healing effects on gonarthrosis induced by partial excision of medial meniscus/abscission of bilateral collateral ligaments; assay type: in vivo, rabbit; settings: 1 μg in microsphere of Example 7-(1), intra-articular two and six weeks after operation; ten weeks after operation; control 18.86 ± 2.03
Protocol: Japanese White rabbits (male; 10-week-old; 7 rabbits/group) were housed for 16 days at room temperature (23±2° C.) and 55±15% humidity. During the housing period, the rabbits were free to access commercially available food (Oriental Bio Service; LRC4).
Under ether anesthesia, the right knee joint of each rabbit was excised and ½ portion of medial meniscus was isolated with double-edged small straight scissors. The bilateral collateral ligaments were also cut. After the operation, muscle and epidermal tissues were sutured and sterilized. Two weeks from the operation, under ether anesthesia, each rabbit of the test group (7 rabbits/group) was administered intra-articularly the drug-containing microsphere prepared in Example 7-(1), which contains 1 μg of Compound (2). The rabbit of the control group (7 rabbits/group) received the same amount of drug-free microsphere prepared in Control Example 2. […]
After wiping off the excess India Ink, the overhead surface image of the formalin-fixed tibial proximal end was imported into an analyzer, Image Analyzer (IMAGING RESEARCH, MICD imaging analyzer), with a stereomicroscope (OLYMPUS OPTICAL Co., Ltd. model SZX12-2111). […] The gross medial area was also measured and the percentage (%) (the degenerated area rate) of the degenerated medial area in the gross medial area was calculated.

Row | SMILES | Proteoglycan Production (%) ([1]; 1 × 10^−5 M) | Proteoglycan Production (%) ([1]; 1 × 10^−6 M) | matrix production promoting activity [1] | Degenerated Area Rate (%) [2]
1 | CCOc1cc2cc(CO)c(CO)c(-c3ccnc(-n4nc(-c5cccnc5)c5ccccc5c4=O)c3)c2cc1OCC [Compound (2)] | 128% | 125% | exert matrix production promoting activity | 10.16 ± 1.35%
2 | COc1ccc(C(=O)Nc2c(Cl)cncc2Cl)cc1OC1CCCC1 [Compound (11)] | – | 112% | exert matrix production promoting activity | –
